The target of one data set is T1, dopamine D2 receptor (Rattus norvegicus, UniProt P61169).
T1 construct: from rat striatal slices; from tissue; host or cells: rat striatal slices
The note with it: against inhibitory effect of quinpirole on K+-stimulated [3H]dopamine release, rat striatal slices; cited from earlier work.

The target in data set [1] is T2, cloned human 5-HT1A receptors (Homo sapiens, UniProt P08908).
T2 construct: expressed in transfected cells
T2 sequence (P08908 1-422): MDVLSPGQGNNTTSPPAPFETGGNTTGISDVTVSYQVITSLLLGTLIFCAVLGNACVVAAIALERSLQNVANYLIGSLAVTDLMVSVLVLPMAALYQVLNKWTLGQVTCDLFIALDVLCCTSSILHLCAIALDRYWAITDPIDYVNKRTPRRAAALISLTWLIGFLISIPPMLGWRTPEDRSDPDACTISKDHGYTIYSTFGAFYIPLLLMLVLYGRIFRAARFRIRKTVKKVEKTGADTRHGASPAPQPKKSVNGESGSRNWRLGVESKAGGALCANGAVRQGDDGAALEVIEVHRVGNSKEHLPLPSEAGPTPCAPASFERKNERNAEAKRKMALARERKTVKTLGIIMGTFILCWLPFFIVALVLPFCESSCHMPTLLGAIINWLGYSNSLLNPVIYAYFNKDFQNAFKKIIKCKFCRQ
The note with it: forskolin induced cAMP accumulation; cited from earlier work. Background: cAMP levels reflect the balance of adenylyl cyclase and phosphodiesterase activity.

Data set [2] relates to MPTP-lesioned common marmosets. As to the kind of experiment: motor disability rating in MPTP-treated common marmosets. In kind it is in vivo, Callithrix jacchus. On the procedure: (§1) All experimental work was carried out in accordance with the Animals (Scientific Procedures Act) 1986, project license nr PPL 70/4986. Administration of MPTP: […] Research Biochemical International, UK) was dissolved in 0.9% sterile saline solution and administered by subcutaneous (sc) injection (Pearce, et al., De Novo Administration of Ropinirole and Bromocriptine Induces Less Dyskinesia than L-DOPA in the MPTP-treated Common Marmoset, Mov Dis, Mar, 13(2), 234-41, (1998)). To induce the full lesion, MPTP (2.0 mg/kg, sc) was administered once daily for 5 consecutive days. During MPTP-treatment and for the following six to eight weeks, animals were hand fed on a marmoset jelly diet until they had recovered sufficiently to feed themselves and their body weights had stabilised. All animals were determined responsive to L-DOPA administration prior to use. Testing commenced only when animals had recovered from the acute effects of MPTP treatment. In this study this was 70 days after commencement for MPTP treatment. Drugs: […] Doses are expressed as mg/kg free base. L-DOPA methyl ester (Sigma, UK) was dissolved in 10% sucrose in given in a volume of 2 ml/kg and administered by oral gavage. Carbidopa (Merck Sharp and Dohme, UK) was suspended in 10% sucrose in given in a volume of 2 ml/kg and administered directly into the mouth of the animal. Domperidone (Sigma, UK) was suspended in 10% sucrose in given in a volume of 2 ml/kg and administered directly into the mouth of the animal. […] Doses of L-DOPA were chosen to reflect a moderate and high dose of L-DOPA (7.5 and 12.5 mg/kg, po respectively). Procedure: […] A modified latin square design was employed with one week wash-out periods between treatments. Animals were assessed for locomotor activity and disability as described below. Rating of disability: The animals were monitored through a one-way mirror by experienced observers, blinded to treatment, and rated for the degree of motor dysfunction. […] Analysis and Statistics: […]

In data set [3] the target is T3, human recombinant dopamine D3 receptors (Homo sapiens, UniProt P35462).
T3 construct: expressed in transfected cells
T3 sequence (P35462 whole entry): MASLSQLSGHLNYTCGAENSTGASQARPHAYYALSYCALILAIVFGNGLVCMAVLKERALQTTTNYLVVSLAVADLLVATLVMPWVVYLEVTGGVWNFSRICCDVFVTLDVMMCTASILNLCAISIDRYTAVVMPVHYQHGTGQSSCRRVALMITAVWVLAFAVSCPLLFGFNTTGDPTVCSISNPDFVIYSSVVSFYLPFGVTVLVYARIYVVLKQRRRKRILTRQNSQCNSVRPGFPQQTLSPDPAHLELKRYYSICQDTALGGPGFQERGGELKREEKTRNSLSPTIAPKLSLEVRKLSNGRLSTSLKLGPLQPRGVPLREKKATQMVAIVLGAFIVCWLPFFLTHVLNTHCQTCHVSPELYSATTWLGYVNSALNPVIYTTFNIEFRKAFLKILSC
The note with it: cited from earlier work.

The next data set deals with dopamine D2/3 receptor. The conditions noted are these: rat striatal slices; cited from earlier work.
The target of data set [4] is T4, cloned human dopamine D2,L receptors (Homo sapiens, UniProt P14416).
T4 construct: expressed in transfected cells
T4 sequence (P14416 whole entry): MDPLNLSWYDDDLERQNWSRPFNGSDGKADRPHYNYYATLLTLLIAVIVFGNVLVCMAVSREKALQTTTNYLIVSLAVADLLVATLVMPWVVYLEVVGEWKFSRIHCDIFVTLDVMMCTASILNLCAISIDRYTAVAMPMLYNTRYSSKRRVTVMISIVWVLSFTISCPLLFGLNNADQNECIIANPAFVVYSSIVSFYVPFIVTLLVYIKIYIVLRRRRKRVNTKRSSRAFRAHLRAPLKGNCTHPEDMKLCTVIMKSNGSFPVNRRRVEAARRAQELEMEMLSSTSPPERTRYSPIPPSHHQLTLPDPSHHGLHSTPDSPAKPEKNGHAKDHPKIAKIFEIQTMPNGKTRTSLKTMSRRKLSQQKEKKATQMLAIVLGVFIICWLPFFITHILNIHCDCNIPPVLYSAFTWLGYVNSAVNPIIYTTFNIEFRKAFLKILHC
The note with it: cited from earlier work.

For data set [5], the system named is MPTP-lesioned common marmosets. The note with it: po; previous study; cited from earlier work.
For data set [6], the system named is MPTP-lesioned common marmosets. As to the kind of experiment: locomotor activity in MPTP-lesioned common marmosets. In kind it is in vivo, Callithrix jacchus. The conditions noted are these: for hyperactivity (3 times normal activity in naive marmosets): alone or combined. Here is the method:
as §1, with “Assessment” for “Rating”, “locomotor activity: […] Each cage was equipped with 8 horizontally orientated infrared photocell emitters and their corresponding detectors arranged so as” for “disability: The animals were monitored through a one-way mirror by experienced observers, blinded”, “permit maximum assessment” for “treatment, and rated for the degree”, “movement.” for “motor dysfunction.”

For data set [7] the following is noted: prodrug; WO 2007/023141; cited from earlier work.
Setting [8] is: L-DOPA 7.5 and 12.5 mg/kg po, SLV308 0.26 mg/kg po.
The mark [9] stands for this setting: SLV308 0.26 mg/kg po, L-DOPA 7.5 and 12.5 mg/kg po.

Here are results for four compounds from patent US7915262B2, “Combination preparations comprising SLV308 and a dopamine agonist” (Solvay Pharmaceuticals B.V., priority 2006, dated 2011).

Counter-ions that a name gives are not always drawn.

T1 sequence (P61169 whole entry): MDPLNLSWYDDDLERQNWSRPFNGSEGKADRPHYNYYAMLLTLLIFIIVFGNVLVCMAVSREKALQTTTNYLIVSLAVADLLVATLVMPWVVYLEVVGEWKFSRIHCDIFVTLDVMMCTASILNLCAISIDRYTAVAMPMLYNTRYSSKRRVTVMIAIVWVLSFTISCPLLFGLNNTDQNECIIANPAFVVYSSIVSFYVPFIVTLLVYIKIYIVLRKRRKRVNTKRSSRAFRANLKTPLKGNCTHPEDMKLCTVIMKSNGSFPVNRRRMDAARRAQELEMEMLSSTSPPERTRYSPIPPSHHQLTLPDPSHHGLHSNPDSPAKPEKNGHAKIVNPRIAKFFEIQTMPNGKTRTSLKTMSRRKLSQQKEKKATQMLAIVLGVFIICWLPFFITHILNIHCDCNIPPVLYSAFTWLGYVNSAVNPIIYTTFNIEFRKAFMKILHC

What is called pA2 is a measure of antagonist potency on a negative log scale. Consider `CCN(CC)C(=O)N[C@H]1C[C@@H]2c3cccc4[nH]cc(c34)C[C@H]2N(C)C1` [terguride, reference compound], for which the pA2 on dopamine D2 receptor was 10.3.

The pEC50 is −log10 of the EC50, conventionally taken in molar units. Take `CN1CCN(c2cccc3[nH]c(=O)oc23)CC1` [SLV308, 7-[4-methyl-1-piperazinyl]-2(3H)-benzoxazolone mono hydrochloride]: in [1], the pEC50 is 6.3 and the “type of agonism at 5-HT1A” value is on record as “full 5-HT1A receptor agonist”. Further, in data set [2] (setting [8]), the “MPTP-induced akinesia and disability” value was “reverse”; the “onset of reversal of disability” value is recorded as “reduced disability scores immediately after administration”. For the same compound, the “median duration of activity (reversal of disability)” value in [2] (SLV308 0.26 mg/kg po alone) came to 390 min. The “total disability scores over the 7 hours after administration” value in [2] (SLV308 0.26 mg/kg po alone or in combination with L-DOPA 7.5 or 12.5 mg/kg, versus vehicle p<0.001) is on record as “reduced”. Also, the “disability score at maximum improvement” value in data set [2] (SLV308 0.26 mg/kg po, maximum score 18) turned out to be 3. Besides, the pA2 in data set [3] (antagonism of dopamine induction of [35S]GTPγS binding) is reported as 9.0. For the same compound, in data set [3] (induction of [35S]GTPγS binding), the pEC50 is recorded as 9.2. Moreover, the “induction of [35S]GTPγS binding” value in [3] (partial agonist) is listed as 67 % that of dopamine. In addition, the “effect on forskolin stimulated accumulation of cAMP” value in the data set with dopamine D2/3 receptor is reported as “concentration-dependently attenuated”. The pA2 on dopamine D2 receptor was 8.5. The pA2 in data set [4] (D2,L receptor antagonism) is recorded as 8.4. Moreover, the “efficacy on forskolin stimulated cAMP accumulation” value in [4] (partial agonist) is reported as 50%. Besides, the “dose of optimal effect on locomotor activity and disability scores” value in data set [5] was 0.26 mg/kg. Also, in [6] (SLV308 0.26 mg/kg po), the “time of peak locomotor activity after treatment” value came to 180 min and the “time to increase of locomotor activity after administration” value was at most 30 min. In data set [6] (setting [9]), the “hyperactivity (3 times normal activity in naive marmosets)” value is given as “hyperactivity was not observed”. The “duration of locomotor activity” value in data set [6] (SLV308 0.26 mg/kg po, whole observation period) is at least 7 h.

For `C[N+]1([O-])CCN(c2cccc3[nH]c(=O)oc23)CC1` [N-oxide of SLV308], the “conversion to SLV308 in vivo” value in data set [7] is reported as “rapidly converted to SLV308”.

Turning to `N[C@@H](Cc1ccc(O)c(O)c1)C(=O)O` [L-DOPA, 3,4-dihydroxyphenylalanine], in data set [2] (L-DOPA 7.5 mg/kg po), the “duration of reversal of disability” value stood at 150 min. Further, the “duration of reversal of disability” value in data set [2] (L-DOPA 12.5 mg/kg po) turned out to be 180 min. For the same compound, the “time of peak reversal of disability after administration” value in data set [2] (L-DOPA 7.5 and 12.5 mg/kg po) was 90 min. Besides, in [2] (setting [8]), the “MPTP-induced akinesia and disability” value is “reverse”; the “onset of reversal of disability” value is recorded as “immediate reversal of disability”. For the same compound, in [2] (L-DOPA 7.5 and 12.5 mg/kg po, maximum score 18), the “disability score at peak reversal” value worked out at 2.5. Further, in [6] (L-DOPA 7.5 and 12.5 mg/kg po), the “duration of locomotor activity” value was in the range of 2.5 to 4 h, the “onset of locomotor activity increase” value was “immediate increase in locomotor activity” and the “time of peak locomotor activity after administration” value lay in the range of 60 to 90 min. The “hyperactivity (3 times normal activity in naive marmosets)” value in data set [6] (setting [9]) is “produced periods of hyperactivity”.
